# Reference: patent US8877778B2, “Benzofurane compounds” (Hoffmann-La Roche Inc., priority 2010, dated 2014)
# Columns and labels:
# human 5-HT2A receptor = human 5-HT2A receptor (Homo sapiens (Human), UniProt P28223); assay: Radioligand binding ([3H]-ketanserin) to cloned receptors expressed in HEK-293 EBNA cells; settings: HEK293 EBNA cell membranes expressing human 5-HT2A
# Method: (§1) HEK293 EBNA cells were transiently transfected with expression plasmids encoding for the human D2 or D3 or for the human 5-HT2A receptor, respectively. The cells were harvested 48 h post-transfection, washed three times with cold PBS and stored at −80° C. prior to use. The pellet was suspended in cold 50 mM Tris-HCl buffer comprising 10 mM EDTA (pH 7.4) and was homogenized with a Polytron (Kinematica AG, Basel, Switzerland) for 20-30 sec at 12.000 rpm. After centrifugation at 48.000×g for 30 min at 4° C., the pellet was resuspended in cold 10 mM Tris-HCl buffer comprising 0.1 mM EDTA (pH 7.4), homogenized, and centrifuged as above. This pellet was further resuspended in a smaller volume of ice cold 10 mM Tris-HCl buffer comprising 0.1 mM EDTA (pH 7.4) and homogenized with a Polytron for 20-30 sec at 12.000 rpm. The protein content of this homogenate was determined with the Bio-Rad (Bradford) Protein Assay (Biorad Laboratories GmbH, München, Germany) according to the instructions of the manufacturer using gamma globulin as the standard. This homogenate was stored at −80° C. in aliquots and thawed immediately prior to use.
# (§2) Aliquots of membrane preparations were thawed at RT, resupended in assay buffer (D2, D3: 50 mM Tris-HCl, 120 mM NaCl, 5 mM MgCl2, 1 mM EDTA, 5 mM KCl, 1.5 mM CaCl2, pH=7.4; 5-HT2A: 50 mM Tris-HCl, 10 mM MgCl2, 1 mM EGTA, pH=7.4), homogenized with a Polytron for 20-30 sec at 12.000 rpm and adjusted to a final concentration of approximately 7.5 μg protein/well (D2, D3) and 15 μg protein/well (5-HT2A), respectively.
# (§3) The binding affinity (Ki) of the compounds was determined using radioligand binding. Membranes were incubated in a total volume of 200 μl with a fixed concentration of radioligand (final concentration approximately 0.7 nM [^3H]-spiperone for D2, 0.5 nM [^3H]-spiperone for D3, and 1.1 nM [^3H]-ketanserin for 5-HT2A) and ten concentrations of test compound in ranging between 10 μM-0.1 nM for 1 h at RT. At the end of the incubation, the reaction mixtures were filtered on to unifilter 96-well white microplates with bonded GF/C filters (Packard BioScience, Zürich, Switzerland; preincubated for 1 h in 0.1% polyethylenimine (PEI) in assay buffer) with a Filtermate 196 harvester (Packard BioScience) and washed 3 times with cold assay buffer. The nonspecific binding was determined with equally composed reaction mixtures in the presence of 10 μM unlabelled spiperone. Per well 45 μl of Microscint 40 (Perkin Elmer, Schwerzenbach, Switzerland) was added, plates for sealed, shaken for 20 min and counted for 3 min on a Topcount Microplate Scintillation Counter (Can berra Packard SA, Zürich, Switzerland) with quenching correction.
# (§4) The CPM value for each duplicate of a concentration of competing compound was averaged (y1), then the % specific binding was calculated according to the equation (((y1−non-specific)/(total binding−non-specific))×100). Graphs were plotted with the % specific binding using XLfit, a curve fitting program that iteratively plots the data using Levenberg-Marquardt algorithm. The single site competition analysis equation used was y=A+((B−A)/(1+((x/C)D))), where y is the % specific binding, A is the minimum y, B is the maximum y, C is the IC50, x is the log 10 of the concentration of the competing compound and D is the slope of the curve (the Hill Coefficient). […] The affinity constant (Ki) was calculated using the Cheng-Prusoff equation Ki=(IC50/1+([L]/Kd), where [L] is the concentration of radioligand and Kd is the dissociation constant of the radioligand at the receptor as determined by the saturation isotherm.
# human D3 receptor = human D3 receptor (Homo sapiens (Human), UniProt P35462); assay: Radioligand binding ([3H]-spiperone) to cloned receptors expressed in HEK-293 EBNA cells; settings: HEK293 EBNA cell membranes expressing human D3
# Sequence of human D3 receptor (P35462 whole entry): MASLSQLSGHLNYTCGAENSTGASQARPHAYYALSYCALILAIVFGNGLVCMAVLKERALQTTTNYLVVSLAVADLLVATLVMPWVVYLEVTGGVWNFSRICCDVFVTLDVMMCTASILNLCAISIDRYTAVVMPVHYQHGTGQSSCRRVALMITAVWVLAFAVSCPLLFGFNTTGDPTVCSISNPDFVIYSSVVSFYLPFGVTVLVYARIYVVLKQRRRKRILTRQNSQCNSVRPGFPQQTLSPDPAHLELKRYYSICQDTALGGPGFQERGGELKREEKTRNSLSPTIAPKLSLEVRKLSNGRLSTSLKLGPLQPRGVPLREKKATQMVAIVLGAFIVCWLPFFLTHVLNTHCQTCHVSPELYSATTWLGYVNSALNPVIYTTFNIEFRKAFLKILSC
# Method: as §1, §2, §3, §4
# human D2 receptor = human D2 receptor (Homo sapiens (Human), UniProt P14416); assay: as above; settings: HEK293 EBNA cell membranes expressing human D2
# Sequence of human D2 receptor (P14416 whole entry): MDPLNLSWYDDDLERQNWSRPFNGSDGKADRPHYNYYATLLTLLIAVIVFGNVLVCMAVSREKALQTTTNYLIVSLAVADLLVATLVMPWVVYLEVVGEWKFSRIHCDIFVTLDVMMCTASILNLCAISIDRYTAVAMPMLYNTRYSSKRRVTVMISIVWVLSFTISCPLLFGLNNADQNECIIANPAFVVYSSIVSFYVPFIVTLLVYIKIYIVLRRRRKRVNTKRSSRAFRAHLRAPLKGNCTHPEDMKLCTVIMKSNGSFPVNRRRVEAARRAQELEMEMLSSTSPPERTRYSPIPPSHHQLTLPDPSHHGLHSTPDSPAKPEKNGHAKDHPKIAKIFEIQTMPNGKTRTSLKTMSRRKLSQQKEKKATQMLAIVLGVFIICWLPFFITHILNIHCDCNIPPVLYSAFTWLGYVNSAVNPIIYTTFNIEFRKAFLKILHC
# Method: as §1, §2, §3, §4
# Sequence of human 5-HT2A receptor (P28223 whole entry): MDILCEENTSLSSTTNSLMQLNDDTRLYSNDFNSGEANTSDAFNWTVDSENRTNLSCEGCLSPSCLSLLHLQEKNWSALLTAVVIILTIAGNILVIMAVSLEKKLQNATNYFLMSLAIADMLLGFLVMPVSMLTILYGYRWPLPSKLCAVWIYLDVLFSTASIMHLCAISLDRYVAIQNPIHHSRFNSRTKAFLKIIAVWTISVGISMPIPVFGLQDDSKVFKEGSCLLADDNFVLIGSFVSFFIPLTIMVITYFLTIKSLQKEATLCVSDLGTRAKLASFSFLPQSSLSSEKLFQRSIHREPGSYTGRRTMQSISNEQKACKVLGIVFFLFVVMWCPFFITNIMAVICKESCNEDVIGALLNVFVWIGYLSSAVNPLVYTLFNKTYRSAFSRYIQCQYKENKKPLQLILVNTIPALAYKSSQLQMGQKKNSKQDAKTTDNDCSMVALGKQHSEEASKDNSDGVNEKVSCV
Structure (SMILES),melting point,Ki (human 5-HT2A receptor),Ki (human D3 receptor),Ki (human D2 receptor)
"O=C(N[C@H]1CC[C@H](CCN2CCC(c3cccc4c3CCO4)CC2)CC1)c1ccc(N2CCCCC2)cc1 [Example 56, trans-N-(4-{2-[4-(2,3-Dihydro-benzofuran-4-yl)-piperidin-1-yl]-ethyl}-cyclohexyl)-4-piperidin-1-yl-benzamide]",248 °C,137 nM,72.5 nM,2270 nM
"Cc1nc(-c2ccc(C(=O)N[C@H]3CC[C@H](CCN4CCC(c5cccc6c5CCO6)CC4)CC3)cc2)no1 [Example 69, trans-N-(4-{2-[4-(2,3-Dihydro-benzofuran-4-yl)-piperidin-1-yl]-ethyl}-cyclohexyl)-4-(5-methyl-[1,2,4]oxadiazol-3-yl)-benzamide]",256.5 °C,54.5 nM,14.9 nM,3730 nM
"O=C(CC1CC1)N[C@H]1CC[C@H](CCN2CCC(c3cccc4c3CCO4)CC2)CC1 [Example 30, trans-2-Cyclopropyl-N-(4-{2-[4-(2,3-dihydro-benzofuran-4-yl)-piperidin-1-yl]-ethyl}-cyclohexyl)-acetamide]",189 °C,28.7 nM,2.9 nM,268 nM
"O=C(N[C@H]1CC[C@H](CCN2CCC(c3cccc4c3CCO4)CC2)CC1)c1ccc(-n2cccn2)cc1 [Example 68, trans-N-(4-{2-[4-(2,3-Dihydro-benzofuran-4-yl)-piperidin-1-yl]-ethyl}-cyclohexyl)-4-pyrazol-1-yl-benzamide]",258.5 °C,27.4 nM,8.65 nM,1700 nM
"CC(=O)N[C@H]1CC[C@H](CCN2CCC(c3cccc4c3CCO4)CC2)CC1 [Example 5, trans-N-(4-{2-[4-(2,3-Dihydro-benzofuran-4-yl)-piperidin-1-yl]-ethyl}-cyclohexyl)-acetamide]",183 °C,37.2 nM,6 nM,298 nM
"CC(C)(C)CC(=O)N[C@H]1CC[C@H](CCN2CCC(c3cccc4c3CCO4)CC2)CC1 [Example 59, trans-N-(4-{2-[4-(2,3-Dihydro-benzofuran-4-yl)-piperidin-1-yl]ethyl}-cyclohexyl)-3,3-dimethyl-butyramide]",193 °C,54.1 nM,6 nM,394 nM
"O=C(N[C@H]1CC[C@H](CCN2CCC(c3cccc4c3CCO4)CC2)CC1)C1CC1(F)F (stereo partly drawn) [Example 61, 2,2-Difluoro-cyclopropanecarboxylic acid trans-(4-{2-[4-(2,3-dihydro-benzofuran-4-yl)-piperidin-1-yl]-ethyl}-cyclohexyl)-amide]",199 °C,51.9 nM,9.6 nM,236 nM
"CCCCC(=O)N[C@H]1CC[C@H](CCN2CCC(c3cccc4c3CCO4)CC2)CC1 [Example 76, Pentanoic acid trans-(4-{2-[4-(2,3-dihydro-benzofuran-4-yl)-piperidin-1-yl]-ethyl}-cyclohexyl)-amide]",186 °C,103 nM,4.57 nM,411 nM
"O=C(CCC(F)(F)F)N[C@H]1CC[C@H](CCN2CCC(c3cccc4c3CCO4)CC2)CC1 [Example 74, trans-N-(4-{2-[4-(2,3-Dihydro-benzofuran-4-yl)-piperidin-1-yl]ethyl}-cyclohexyl)-4,4,4-trifluoro-butyramide]",200 °C,119 nM,7.64 nM,253 nM
"CS(=O)(=O)CC(=O)N[C@H]1CC[C@H](CCN2CCC(c3cccc4c3CCO4)CC2)CC1 [Example 15, trans-N-(4-{2-[4-(2,3-Dihydro-benzofuran-4-yl)-piperidin-1-yl]-ethyl}-cyclohexyl)-2-methanesulfonyl-acetamide]",211 °C,35.9 nM,4.9 nM,419 nM
"O=C(N[C@H]1CC[C@H](CCN2CCC(c3cccc4c3CCO4)CC2)CC1)c1ccc(-n2cccc2)cc1 [Example 90, trans-N-(4-{2-[4-(2,3-Dihydro-benzofuran-4-yl)-piperidin-1-yl]-ethyl}-cyclohexyl)-4-pyrrol-1-yl-benzamide]",228 °C,30.4 nM,10.5 nM,85.1 nM
"O=C(N[C@H]1CC[C@H](CCN2CCC(c3cccc4c3CCO4)CC2)CC1)C1CC1 [Example 29, Cyclopropanecarboxylic acid trans-(4-{2-[4-(2,3-dihydro-benzofuran-4-yl)-piperidin-1-yl]-ethyl}-cyclohexyl)-amide]",208 °C,23.6 nM,8.9 nM,151 nM
"O=S(=O)(N[C@H]1CC[C@H](CCN2CCC(c3cccc4c3CCO4)CC2)CC1)c1ccccc1 [Example 49, trans-N-(4-{2-[4-(2,3-Dihydro-benzofuran-4-yl)-piperidin-1-yl]-ethyl}-cyclohexyl)-benzenesulfonamide]",130 °C,79.7 nM,5.1 nM,138 nM
"O=C(CC1CCOCC1)N[C@H]1CC[C@H](CCN2CCC(c3cccc4occc34)CC2)CC1 [Example 4, trans-N-{4-[2-(4-Benzofuran-4-yl-piperidin-1-yl)-ethyl]-cyclohexyl}-2-(tetrahydro-pyran-4-yl)-acetamide]",181 °C,9 nM,5.7 nM,219 nM
"CN1CCN(c2ccc(C(=O)N[C@H]3CC[C@H](CCN4CCC(c5cccc6c5CCO6)CC4)CC3)cc2)CC1 [Example 44, trans-N-(4-{2-[4-(2,3-Dihydro-benzofuran-4-yl)-piperidin-1-yl]-ethyl}-cyclohexyl)-4-(4-methyl-piperazin-1-yl)-benzamide]",241 °C,8.4 nM,6 nM,147 nM
"O=C(N[C@H]1CC[C@H](CCN2CCC(c3cccc4c3CCO4)CC2)CC1)c1ccc(Cl)cc1Cl [Example 89, trans-2,4-Dichloro-N-(4-{2-[4-(2,3-dihydro-benzofuran-4-yl)-piperidin-1-yl]-ethyl}-cyclohexyl)-benzamide]",188 °C,31.5 nM,8.28 nM,234 nM
"CC(=O)N[C@H]1CC[C@H](CCN2CCC(c3cccc4occc34)CC2)CC1 [Example 1, trans-N-{4-[2-(4-Benzofuran-4-yl-piperidin-1-yl)-ethyl]-cyclohexyl}-acetamide]",167 °C,6.8 nM,2.9 nM,187 nM
"CCCC(=O)N[C@H]1CC[C@H](CCN2CCC(c3cccc4c3CCO4)CC2)CC1 [Example 73, trans-N-(4-{2-[4-(2,3-Dihydro-benzofuran-4-yl)-piperidin-1-yl]-ethyl}-cyclohexyl)-butyramide]",196 °C,93.4 nM,5.16 nM,197 nM
"O=C(N[C@H]1CC[C@H](CCN2CCC(c3cccc4c3CCO4)CC2)CC1)c1ccc(N2CCS(=O)(=O)CC2)cc1 [Example 77, trans-N-(4-{2-[4-(2,3-Dihydro-benzofuran-4-yl)-piperidin-1-yl]-ethyl}-cyclohexyl)-4-(1,1-dioxo-1λ6-thiomorpholin-4-yl)-benzamide]",282 °C,33 nM,5.62 nM,329 nM
